According to patent US20230257385A1, “SALT AND SOLID FORMS OF TABERNANTHALOG” (priority 2021, published 2023):

Assay: Equilibrium humidity evaluation 75% RH/40° C., 10 days (Example 8, Experiment 6)
Assay type: physicochemical
Procedure: The experimental procedure that accompany this experiment is provided in Section G.ii.
All forms were maintained under constant equilibrium humidity (75% RH). XRPD, DSC, TGA, PLM and ^1H NMR analyses were performed on the absorbents at t=5 d and t=10 d, to confirm their physical fates and to determine the extent of residual solvent exchange or sequestration.
100 mg portions of Tabernanthalog salts ([…]) were placed in the relevant open vials. The powders were finely divided and distributed evenly over the base of the vial, such that equal material coverage across the panel was observed. These samples were then maintained 40° C. under 75% RH. The samples were sub-sampled at intervals of 5 and 10 days and analyzed by ^1H NMR, HPLC, XRPD, DSC, TGA and PLM, for evidence of phase change or chemical degradation.

## COc1ccc2c3c([nH]c2c1)CCN(C)CC3.O=C(O)/C=C/C(=O)O [8-A4 of Example 5]
Fumarate salt, input before humidity exposure
  Tabernanthalog RRT = 1.00 (trended HPLC data, chemical purity): 99.04

## COc1ccc2c3c([nH]c2c1)CCN(C)CC3.O=C(O)/C=C/C(=O)O [Sample 6-A1]
Fumarate salt, t = 5 d at 75% RH at 40° C.
  Tabernanthalog RRT = 1.00 (trended HPLC data, chemical purity): 99.12

## COc1ccc2c3c([nH]c2c1)CCN(C)CC3.O=C(O)/C=C/C(=O)O [Sample 6-A2]
Fumarate salt, t = 10 d at 75% RH at 40° C.
  Tabernanthalog RRT = 1.00 (trended HPLC data, chemical purity): 98.71

## COc1ccc2c3c([nH]c2c1)CCN(C)CC3.O=C(O)C(O)C(O)C(=O)O [Sample 6-B1]
Tartrate salt, t = 5 d at 75% RH at 40° C.
  Tabernanthalog RRT = 1.00 (trended HPLC data, chemical purity): 98.86

## COc1ccc2c3c([nH]c2c1)CCN(C)CC3.O=C(O)C(O)C(O)C(=O)O [Sample 6-B2]
Tartrate salt, t = 10 d at 75% RH at 40° C.
  Tabernanthalog RRT = 1.00 (trended HPLC data, chemical purity): 98.82

## COc1ccc2c3c([nH]c2c1)CCN(C)CC3.O=C(O)c1ccccc1 [Sample 6-C1]
Benzoate salt, t = 5 d at 75% RH at 40° C.
  Tabernanthalog RRT = 1.00 (trended HPLC data, chemical purity): 98.36

## C/C=C/C=C/C(=O)O.COc1ccc2c3c([nH]c2c1)CCN(C)CC3 [Sample 6-D1]
Sorbate salt, t = 5 d at 75% RH at 40° C.
  Tabernanthalog RRT = 1.00 (trended HPLC data, chemical purity): 99.52

## C/C=C/C=C/C(=O)O.COc1ccc2c3c([nH]c2c1)CCN(C)CC3 [Sample 6-D2]
Sorbate salt, t = 10 d at 75% RH at 40° C.
  Tabernanthalog RRT = 1.00 (trended HPLC data, chemical purity): 99.70

## COc1ccc2c3c([nH]c2c1)CCN(C)CC3.O=C(O)c1ccccc1 [Sample 16-C2]
Benzoate salt, t = 10 d at 75% RH at 40° C.
  Tabernanthalog RRT = 1.00 (trended HPLC data, chemical purity): 98.17
